Source: PMC9975039 (Oncogene, 2023)

Target: T1, AKR1C3 (Homo sapiens, UniProt P42330)
T1 sequence (P42330 1-323): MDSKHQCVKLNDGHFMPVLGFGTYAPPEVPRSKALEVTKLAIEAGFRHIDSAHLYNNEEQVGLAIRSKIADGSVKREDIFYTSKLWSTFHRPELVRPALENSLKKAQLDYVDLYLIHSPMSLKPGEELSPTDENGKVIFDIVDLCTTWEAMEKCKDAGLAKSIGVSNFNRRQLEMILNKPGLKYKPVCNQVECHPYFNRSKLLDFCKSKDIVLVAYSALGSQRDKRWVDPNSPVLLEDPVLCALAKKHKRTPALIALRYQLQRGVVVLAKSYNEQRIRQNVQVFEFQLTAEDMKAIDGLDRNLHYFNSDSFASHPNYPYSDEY
Assay: S-tetralol oxidation assay, recombinant AKR1C3, absorbance at […] nm
Type: biochemical

SMILES: NS(=O)(=O)c1ccc(-n2nc(CCCNC(=O)Nc3ccc(C(F)(F)F)cc3)cc2-c2ccccc2)cc1 [PTUPB, 4-(5-phenyl-3-{3-[3-(4-trifluoromethyl-phenyl)-ureido]-propyl}-pyrazol-1-yl)-benzenesulfonamide]
- IC50: ~65 nM
